The source of these data is US11931374B2, “Adenosine receptor modulators for the treatment of circadian rhythm disorders” (OXFORD UNIVERSITY INNOVATION LIMITED, priority 2016, dated 2024).

The subject of test [1] is Per1. The experiment in a line: Per1 mRNA within the SCN after intraperitoneal injection. The settings on record: 4 h after intraperitoneal injection. The test is classed as in vivo, mice. From the text: SCN Tissue Collection: Animals were housed under a 12:12 LD cycle for 2 weeks with food and water ad libitum. Animals then received either a drug injection with a alteration in the light dark cycle as described in the experiment and at set points following drug administration were sacrificed by cervical dislocation. Sham-treated mice not given a light pulse were dissected at each time point. Brains were removed and placed into a brain matrix (Kent Scientific, Torrington CT, USA). Per2::Luc transgenic animals (as reported in Yoo et al, Proc Natl Acad Sci USA. 2004 Apr. 13; 101(15):5339-46) were obtained from Prof Joseph Takahashi, Northwestern University. […]
(§1) Total RNA was extracted using the microRNeasy column method (Qiagen, Hilden, Germany). Quality and quantity of RNA were measured using an Agilent Bioanalyzer and a Nanodrop1000 (Thermo Fisher Scientific, Waltham, MA USA), respectively.
RNA samples were prepared as described for microarray hybridisation. cDNA was synthesized with a qScript cDNA synthesis kit (Quanta Biosciences, Gaithersburg, MD), and quantitative PCR (qPCR) was conducted with Sybr green I and an SDS7700 thermal cycler (Applied Biosystems, Foster City, CA). Relative quantification of transcript levels was done as described previously (Peirson et al., Nucleic Acids Res. 2003 Jul. 15; 31(14):e73.). […]

A further test has as its system cJun. The experiment in a line: cJun mRNA after drug treatment. The settings on record: 10 uM. The test is classed as cell-based. The protocol:
as §1
(§2) RNA samples were prepared as described for microarray hybridisation. cDNA was synthesized with a qScript cDNA synthesis kit (Quanta Biosciences, Gaithersburg, MD), and quantitative PCR (qPCR) was conducted with Sybr green I and an SDS7700 thermal cycler (Applied Biosystems, Foster City, CA). Relative quantification of transcript levels was done as described previously (Peirson et al., Nucleic Acids Res. 2003 Jul. 15; 31(14):e73.). The geometric mean of a minimum of three housekeeping genes was used for normalization (Gapdh, ActB, GusB and Rps9 for example).

Test [2] deals with intracellular levels of cAMP. The experiment in a line: cAMP GloSensor assay in U2OS cells. The test is classed as cell-based. The procedure:
The GloSensor™ cAMP Assay (Promega) was used for detecting changes in the intracellular levels of cAMP. Initially, a Greiner Bio-One 96 Well Plate (white, TC treated) was seeded at 8000 cells per 100 μl well, as described above. After 24 hours, the cells were transfected with the pGloSensor™ cAMP Plasmid using the Viafect transfection reagent as above. Between 24 and 48 hours later, allowing for the accumulation of the biosensor, the medium in the 96 well plate was changed to C02-Independent Medium supplemented with GlutaMAX™ (Life Technologies), 10% fetal bovine serum and 2% GloSensor™ cAMP Reagent. The plate was then stood for 2 hours at room temperature to equilibrate. Following the incubation period, the cells were treated with relevant drugs and their luminescence values were measured after 20 minutes in the BMG FLUOstar OPTIMA Microplate Reader, with forskolin as a positive control, and DMSO as a negative control.

The subject of another test is C57Bl/6 mice. The experiment in a line: Re-entrainment in a jet-lag protocol. The test is classed as in vivo. The procedure: Animals were housed under a reversed 12:12 LD cycle (400 lux from white LED lamps) with food and water ad libitum. For phase-shifting studies, C57Bl/6 mice were maintained on running wheels in light tight chambers on a 12:12 LD cycle (400 lux from white LED lamps) and injected with drug at the indicated time points. The drugs were formulated in a vehicle consisting of 5% Koliphor-HS15 (Sigma-Aldrich, UK) 5% Cyclodextran (Sigma-Aldrich, UK) in 0.9% saline. This vehicle was warmed to 37° C. and the indicated drugs kept at a 100× stock in DMSO and mixed at the appropriate concentration to be administered at approximately 300 ul intraperitoneal injection (n=6 to 10). Where the time point of injection was in the dark, the procedure was conducted under dim red light. Where measuring phase-shifting, the mice were then placed in DD and allowed to free run for 14 days in DD, running wheel activity data was collected and analysed on Clocklab (Actimetrics, Wilmette, IL). […]
Re-entrainment: C57B/6 male mice (80 days or older) were maintained on running wheels in light tight chambers on a 12:12 LD cycle (100 lux from white LED lamps) and injected with drugs as above at ZT6. […] Onset of activity on each day was used to measure phase relative to the LD cycle, data analysed on Clocklab.

Test [3] has as its system Per2::Luc SCN slice cultures. The experiment in a line: Per2::Luc SCN slice culture. The test is classed as cell-based, mice. The settings on record: isolated Per2::Luc SCN slice cultures. The text has this: SCN Tissue Collection: Animals were housed under a 12:12 LD cycle for 2 weeks with food and water ad libitum. Animals then received either a drug injection with a alteration in the light dark cycle as described in the experiment and at set points following drug administration were sacrificed by cervical dislocation. Sham-treated mice not given a light pulse were dissected at each time point. Brains were removed and placed into a brain matrix (Kent Scientific, Torrington CT, USA). Per2::Luc transgenic animals (as reported in Yoo et al, Proc Natl Acad Sci USA. 2004 Apr. 13; 101(15):5339-46) were obtained from Prof Joseph Takahashi, Northwestern University.
For SCN slice culture: The brain was gently cut into a cube preserving the integrity of the SCN and cut into […] slices in ice-cold oxygenated Hanks Balanced Salt Solution containing 100 nM MK801 (Sigma-Aldrich). The SCN was microdissected and transferred to membrane filter (Millicell Cell Culture Insert, 30 mm, hydrophilic PTFE, 0.4 μm, Millipore) and cultured in 300 uL DMEM prepared as detailed in the Per2::Luc Assay.

The subject of the next test is CREB. The experiment in a line: CREB phosphorylation in U2OS cells. The test is classed as cell-based.
In test [4] the test system is Bmal1::Luc reporter U2OS cells. The experiment in a line: Bmal1::Luc reporter U2OS cells circadian rhythm. The test is classed as cell-based. The settings on record: 10 uM.
In test [5] the test system is Per1. The experiment in a line: Per1 mRNA levels in U2OS cells by qPCR. In kind it is cell-based. The procedure: as §1, §2
Cells from the U2OS (HTB-96) line were obtained, tested and identified. The cells were cultured in T-75 flasks, in Dulbecco's modified Eagle medium (DMEM) supplemented with 10% foetal bovine serum (FBS) and 1% penicillin-streptomycin (P/S) at 37° C. in a humidified atmosphere at 5% CO2. The cells were subcultured every 2 to 4 days in a 1:2 to 1:6 ratio, in accordance with the ATCC recommendations. The cells were counted using a haemocytometer, and their viability in a culture was maintained at above 95%, measured with a Presto Blue exclusion assay according to the manufacturer's specifications. Cells were transfected with siRNAs (typically at 50 nM concentrations, sequences as previously listed), the CRE::Luc (pGL4.29[luc2P/CRE/Hygro] Vector, encoding Luc2P […] under the control of a strong cAMP response element (CRE) promoter containing 3 CRE elements within its sequence; Promega) reporter vector or cAMP-GLOSensor plasmid (Promega) as per manufacturer's instructions using either Lipofectamine RNAimax (Invitrogen) or Lipofectamine3000 (Invitrogen).
Background: Quantitative PCR measures a nucleic acid by following its amplification.

Entries after “also recorded” stand apart in the source; their conditions may differ.

For the compound `Nc1nc(-c2ccccc2)c2c(n1)-c1cc(OCCN3CCOCC3)ccc1C2=O` [JNJ40255293, 2-amino-8-[2-(4-morpholinyl)ethoxy]-4-phenyl-5H-indeno[1,2-d]pyrimidin-5-one], the “Per1 mRNA levels within the SCN” value in the test with Per1 [1] was “increase”. In the test with cJun, the “cJun mRNA” value is “Upregulation”. In test [2], the cAMP levels entry is on record as “does not elevate cAMP levels”. In addition, in test [2] (30 uM), the “increase in cAMP” value is reported as 50%. For the same compound, the “re-entrainment (advance of activity onset)” value in the test on C57Bl/6 mice (5 mg/kg single intraperitoneal injection at ZT6, LD cycle advanced 6 h) was “shifted rapidly; also recorded: advanced entrainment more potently than Tasimelteon, KW6002 (specific A2A antagonist) or KW3902 (specific A1 antagonist)”. For the same compound, the “re-entrainment, dose response” value with C57Bl/6 mice (jet-lag protocol, LD cycle advanced 6 h) is recorded as “dose responsively enhanced re-entrainment”. The period length entry in test [3] is on record as “increased period length”. Besides, in the test with CREB, the CREB phosphorylation entry was “no changes in CREB phosphorylation”. In test [4], the period length entry is on record as “increases in period length” and the “rhythms after washout of drug” value is “revert to normal rhythms after washout of drug”. Besides, the Per1 transcription result with Per1 [5] (4 h post-drug treatment) is recorded as “significantly increased”. Also, in the test on Per1 [5] (U2OS cell cultures, 10 uM), the “Per1 mRNA” value is recorded as “Robust increases”. Further, in the test with Per1 [5] (U2OS cells, 30 uM), the “Per1 mRNA levels” value is listed as “elevated”. The “Per1 mRNA levels / expression” value with Per1 [5] (U2OS cells, qPCR, concentration not given) is “induce the expression of Per1 and Per2”.
